Data reported in ChEMBL document CHEMBL4308841, “Synthesis, in vitro antiproliferative activity, and kinase inhibitory effects of pyrazole-containing diarylureas and diarylamides” (Eur J Med Chem, 2018).

Legend:
[1] = tested on: OVCAR-3; assay: Growth inhibition of human OVCAR3 cells assessed as cell growth at 0.1 uM incubated for 48 hrs by sulforhodamine B assay relative to control; assay type: functional; conditions: OVCAR-3, 48 h, read-out: Activity
[2] = tested on: CAKI-1; assay: Growth inhibition of human Caki1 cells assessed as cell growth at 1 uM incubated for 48 hrs by sulforhodamine B assay relative to control; assay type: functional; conditions: CAKI-1, 48 h, read-out: Activity
[3] = tested on: OVCAR-5; assay: Growth inhibition of human OVCAR5 cells assessed as cell growth at 1 uM incubated for 48 hrs by sulforhodamine B assay relative to control; assay type: functional; conditions: OVCAR-5, 48 h, read-out: Activity
[4] = tested on: TK-10; assay: Growth inhibition of human TK10 cells assessed as cell growth at 10 uM incubated for 48 hrs by sulforhodamine B assay relative to control; assay type: functional; conditions: TK-10, 48 h, read-out: Activity
[5] = tested on: HCT-116; assay: Growth inhibition of human HCT116 cells assessed as cell growth at 0.01 uM incubated for 48 hrs by sulforhodamine B assay relative to control; assay type: functional; conditions: HCT-116, 48 h, read-out: Activity
[6] = tested on: SNB-75; assay: Growth inhibition of human SNB75 cells assessed as cell growth at 1 uM incubated for 48 hrs by sulforhodamine B assay relative to control; assay type: functional; conditions: SNB-75, 48 h, read-out: Activity
[7] = tested on: Hs-578T; assay: Growth inhibition of human Hs578T cells incubated for 48 hrs by sulforhodamine B assay; assay type: functional, cell-based
[8] = tested on: HCT-15; assay: Growth inhibition of human HCT15 cells assessed as cell growth at 100 uM incubated for 48 hrs by sulforhodamine B assay relative to control; assay type: functional; conditions: HCT-15, 48 h, read-out: Activity
[9] = tested on: SNB-75; assay: Growth inhibition of human SNB75 cells assessed as cell growth at 0.1 uM incubated for 48 hrs by sulforhodamine B assay relative to control; assay type: functional; conditions: SNB-75, 48 h, read-out: Activity
[10] = tested on: BT-549; assay: Growth inhibition of human BT549 cells assessed as cell growth at 100 uM incubated for 48 hrs by sulforhodamine B assay relative to control; assay type: functional; conditions: BT-549, 48 h, read-out: Activity
[11] = tested on: 786-0; assay: Growth inhibition of human 786-0 cells assessed as cell growth at 1 uM incubated for 48 hrs by sulforhodamine B assay relative to control; assay type: functional; conditions: 786-0, 48 h, read-out: Activity
[12] = tested on: NCI-H522; assay: Growth inhibition of human NCI-H522 cells incubated for 48 hrs by sulforhodamine B assay; assay type: functional, cell-based; conditions: NCI-H522, 48 h
[13] = tested on: M14; assay: Growth inhibition of human M14 cells assessed as cell growth at 0.1 uM incubated for 48 hrs by sulforhodamine B assay relative to control; assay type: functional; conditions: M14, 48 h, read-out: Activity
[14] = tested on: MDA-MB-468; assay: Growth inhibition of human MDA-MB-468 cells assessed as cell growth at 100 uM incubated for 48 hrs by sulforhodamine B assay relative to control; assay type: functional; conditions: MDA-MB-468, 48 h, read-out: Activity
[15] = tested on: HCT-15; assay: Growth inhibition of human HCT15 cells incubated for 48 hrs by sulforhodamine B assay; assay type: functional, cell-based; conditions: HCT-15, 48 h
[16] = tested on: NCI-H23; assay: Growth inhibition of human NCI-H23 cells assessed as cell growth at 1 uM incubated for 48 hrs by sulforhodamine B assay relative to control; assay type: functional; conditions: NCI-H23, 48 h, read-out: Activity
[17] = tested on: SNB-75; assay: Growth inhibition of human SNB75 cells assessed as cell growth at 0.01 uM incubated for 48 hrs by sulforhodamine B assay relative to control; assay type: functional; conditions: SNB-75, 48 h, read-out: Activity
[18] = tested on: RXF 393; assay: Growth inhibition of human RXF393 cells assessed as cell growth at 0.01 uM incubated for 48 hrs by sulforhodamine B assay relative to control; assay type: functional; conditions: RXF 393, 48 h, read-out: Activity
[19] = tested on: NCI-H23; assay: Growth inhibition of human NCI-H23 cells assessed as cell growth at 0.1 uM incubated for 48 hrs by sulforhodamine B assay relative to control; assay type: functional; conditions: NCI-H23, 48 h, read-out: Activity
[20] = tested on: SN12C; assay: Growth inhibition of human SN12C cells assessed as cell growth at 0.1 uM incubated for 48 hrs by sulforhodamine B assay relative to control; assay type: functional; conditions: read-out: Activity
[21] = tested on: U-251; assay: Growth inhibition of human U251 cells assessed as cell growth at 1 uM incubated for 48 hrs by sulforhodamine B assay relative to control; assay type: functional; conditions: U-251, 48 h, read-out: Activity
[22] = tested on: Hs-578T; assay: Growth inhibition of human Hs578T cells assessed as cell growth at 0.1 uM incubated for 48 hrs by sulforhodamine B assay relative to control; assay type: functional; conditions: read-out: Activity
[23] = tested on: HT-29; assay: Growth inhibition of human HT-29 cells assessed as cell growth at 100 uM incubated for 48 hrs by sulforhodamine B assay relative to control; assay type: functional; conditions: HT-29, 48 h, read-out: Activity
[24] = tested on: Malme-3M; assay: Growth inhibition of human MALME-3M cells incubated for 48 hrs by sulforhodamine B assay; assay type: functional, cell-based
[25] = tested on: SF-268; assay: Growth inhibition of human SF268 cells assessed as cell growth at 0.1 uM incubated for 48 hrs by sulforhodamine B assay relative to control; assay type: functional; conditions: SF-268, 48 h, read-out: Activity
[26] = tested on: SNB-19; assay: Growth inhibition of human SNB19 cells assessed as cell growth at 0.01 uM incubated for 48 hrs by sulforhodamine B assay relative to control; assay type: functional; conditions: SNB-19, 48 h, read-out: Activity
[27] = tested on: IGROV-1; assay: Growth inhibition of human IGROV1 cells assessed as cell growth at 0.1 uM incubated for 48 hrs by sulforhodamine B assay relative to control; assay type: functional; conditions: IGROV-1, 48 h, read-out: Activity
[28] = tested on: OVCAR-8; assay: Growth inhibition of human OVCAR8 cells incubated for 48 hrs by sulforhodamine B assay; assay type: functional, cell-based; conditions: OVCAR-8, 48 h
[29] = tested on: UO-31; assay: Growth inhibition of human UO31 cells assessed as cell growth at 100 uM incubated for 48 hrs by sulforhodamine B assay relative to control; assay type: functional; conditions: UO-31, 48 h, read-out: Activity
[30] = tested on: HCT-116; assay: Growth inhibition of human HCT116 cells assessed as cell growth at 0.1 uM incubated for 48 hrs by sulforhodamine B assay relative to control; assay type: functional; conditions: HCT-116, 48 h, read-out: Activity
[31] = tested on: SR; assay: Growth inhibition of human SR cells assessed as cell growth at 0.1 uM incubated for 48 hrs by sulforhodamine B assay relative to control; assay type: functional; conditions: read-out: Activity
[32] = read-out: LC50 (the source's name)
[33] = read-out: pLC50 (the source's name) (converted)

In the case of `COc1cc(Cl)cc(-c2nn(-c3cccc(NC(=O)Nc4ccc(Cl)c(C(F)(F)F)c4)c3)cc2-c2ccncc2)c1`, the growth at 0.1 µM [1] is reported as 99%, the growth at 1 µM [2] is reported as 45% and the growth at 1 µM [3] is reported as 81%. It also gave a growth at 10 µM [4] of 37.5%, a growth at 0.01 µM [5] of 104% and a growth at 1 µM [6] of 68%. It also gave a GI50 ([7]; read-out: GI50) of 4.29 µM, a CC50 [7, 32] of over 100 µM and a TGI ([7]; read-out: TGI) of 67.7 µM. It also gave a GI50 ([7]; read-out: pGI50 (converted)) of 4.27 µM, a CC50 [7, 33] of over 100 µM and a TGI ([7]; read-out: pTGI (converted)) of 67.6 µM. For the same molecule, the growth at 100 µM [8] was -90%, the growth at 0.1 µM [9] was 52% and the growth at 100 µM [10] was -68%. It also gave a growth at 1 µM [11] of 74%, a GI50 ([12]; read-out: GI50) of 0.418 µM and a CC50 [12, 32] of 9.74 µM. For the same molecule, the TGI ([12]; read-out: TGI) was 25 µM, the GI50 ([12]; read-out: pGI50 (converted)) was 0.417 µM and the CC50 [12, 33] was 9.77 µM. The TGI ([12]; read-out: pTGI (converted)) was 2.51 µM, the growth at 0.1 µM [13] was 96% and the growth at 100 µM [14] was -27%. For the same molecule, the GI50 ([15]; read-out: GI50) was 0.493 µM, the CC50 [15, 32] was 6.46 µM and the TGI ([15]; read-out: TGI) was 24 µM. The GI50 ([15]; read-out: pGI50 (converted)) was 0.49 µM, the CC50 [15, 33] was 8.51 µM and the TGI ([15]; read-out: pTGI (converted)) was 2.4 µM. It also gave a growth at 1 µM [16] of 60%, a growth at 0.01 µM [17] of 57% and a growth at 0.01 µM [18] of 97%. The growth at 0.1 µM [19] was 90%, the growth at 0.1 µM [20] was 100% and the growth at 1 µM [21] was 43%. The growth at 0.1 µM [22] was 90%, the growth at 100 µM [23] was -84% and the GI50 ([24]; read-out: GI50) was 1.21 µM. For the same molecule, the CC50 [24, 32] was over 100 µM, the TGI ([24]; read-out: TGI) was 85 µM and the GI50 ([24]; read-out: pGI50 (converted)) was 1.7 µM. The CC50 [24, 33] was over 100 µM, the TGI ([24]; read-out: pTGI (converted)) was 3.16 µM and the growth at 0.1 µM [25] was 90%. It also gave a growth at 0.01 µM [26] of 92%, a growth at 0.1 µM [27] of 99% and a GI50 ([28]; read-out: GI50) of 0.739 µM. The CC50 [28, 32] was over 100 µM, the TGI ([28]; read-out: TGI) was 59.3 µM and the GI50 ([28]; read-out: pGI50 (converted)) was 0.741 µM. It also gave a CC50 [28, 33] of over 100 µM, a TGI ([28]; read-out: pTGI (converted)) of 7.08 µM and a growth at 100 µM [29] of -50%. It also gave a growth at 0.1 µM [30] of 97% and a growth at 0.1 µM [31] of 92%.
`O=C(Nc1cccc(-n2cc(-c3ccncc3)c(-c3cc(O)cc(Cl)c3)n2)c1)Nc1ccc(Cl)c(C(F)(F)F)c1` was tested, and the growth at 0.1 µM [1] was 95%, the growth at 1 µM [2] was 98% and the growth at 1 µM [3] was 109%. The growth at 10 µM [4] was 25.9%, the growth at 0.01 µM [5] was 104% and the growth at 1 µM [6] was 54%. It also gave a GI50 ([7]; read-out: GI50) of 3.2 µM, a CC50 [7, 32] of over 100 µM and a TGI ([7]; read-out: TGI) of over 100 µM. The GI50 ([7]; read-out: pGI50 (converted)) was 3.31 µM, the CC50 [7, 33] was over 100 µM and the TGI ([7]; read-out: pTGI (converted)) was over 100 µM. It also gave a growth at 100 µM [8] of -57%, a growth at 0.1 µM [9] of 88% and a growth at 100 µM [10] of -93%. It also gave a growth at 1 µM [11] of 84%, a GI50 ([12]; read-out: GI50) of 1.32 µM and a CC50 [12, 32] of 19 µM. The TGI ([12]; read-out: TGI) was 44.8 µM, the GI50 ([12]; read-out: pGI50 (converted)) was 1.32 µM and the CC50 [12, 33] was 19.1 µM. For the same molecule, the TGI ([12]; read-out: pTGI (converted)) was 4.47 µM, the growth at 0.1 µM [13] was 91% and the growth at 100 µM [14] was -29%. It also gave a GI50 ([15]; read-out: GI50) of 2.21 µM, a CC50 [15, 32] of 50.6 µM and a TGI ([15]; read-out: TGI) of 60.1 µM. The GI50 ([15]; read-out: pGI50 (converted)) was 2.82 µM, the CC50 [15, 33] was 60.3 µM and the TGI ([15]; read-out: pTGI (converted)) was 6.03 µM. It also gave a growth at 1 µM [16] of 96%, a growth at 0.01 µM [17] of 53% and a growth at 0.01 µM [18] of 93%. It also gave a growth at 0.1 µM [19] of 91%, a growth at 0.1 µM [20] of 100% and a growth at 1 µM [21] of 56%. The growth at 0.1 µM [22] was 94%, the growth at 100 µM [23] was -88% and the GI50 ([24]; read-out: GI50) was 2.37 µM. It also gave a CC50 [24, 32] of 24.3 µM, a TGI ([24]; read-out: TGI) of 62.5 µM and a GI50 ([24]; read-out: pGI50 (converted)) of 2.34 µM. The CC50 [24, 33] was 24.5 µM, the TGI ([24]; read-out: pTGI (converted)) was 6.31 µM and the growth at 0.1 µM [25] was 93%. The growth at 0.01 µM [26] was 95%, the growth at 0.1 µM [27] was 98% and the GI50 ([28]; read-out: GI50) was 2.15 µM. For the same molecule, the CC50 [28, 32] was 50.1 µM, the TGI ([28]; read-out: TGI) was 55.5 µM and the GI50 ([28]; read-out: pGI50 (converted)) was 2.14 µM. It also gave a CC50 [28, 33] of 79.4 µM, a TGI ([28]; read-out: pTGI (converted)) of 5.62 µM and a growth at 100 µM [29] of -73%. It also gave a growth at 0.1 µM [30] of 103% and a growth at 0.1 µM [31] of 98%.
